Positions of bridges follow the written chain, without caps; N, C: chain ends. Non-standard residues stand in square brackets, D forms with d. Residues, ends and D or L forms follow the SMILES beside them. Asu = N[C@@H](CCCCCC(=O)O)C(=O)O; Mpa = O=C(O)CCS
Experiments:
[1] = tested on: Wistar rats; assay: Serum phosphate reducing activity, i.v. into the tail vein of Wistar rats, method of Goldenberg et al.; assay type: in vivo; conditions: rat; for reduction of serum phosphate concentration as compared with control group: vs dissolving medium group
Procedure: (§1) Desalanyl-deamino-c-CGRP, desalanyl-[Asu^2,7 -c-CGRP and desalanyl-[Asp^3, Asu^2,7 ]-c-CGRP (each 80 μg), and c-CGRP (Japan. Patent Unexam. Publ. No. 61-273581) and known h-CGRP (each 80 μg for control group) dissolved in citrate buffer, pH 6.5, containing 0.1% bovine serum albumin (hereinafter designated dissolving medium) (1 ml) were administered intravenously into the tail vein of Wistar rats, body weight 80-90 g, 5-6 rats in one group, at 20 or 80 μg/kg. After 30 and 60 mins. of administration, blood samples were collected from the abdominal descending aorta. The serum calcium concentration was measured by atomic adsorption spectrophotometry. Serum phosphate was measured by a method according to Goldenberg et al. [Clin. Chem., 12: 872-882 (1966)].

[2] = Physical properties: pI; assay type: physicochemical
[3] = tested on: Wistar rats; assay: Serum calcium reducing activity, i.v. into the tail vein of Wistar rats, atomic adsorption spectrophotometry; assay type: in vivo; conditions: rat; for reduction of serum calcium concentration as compared with control group: vs dissolving medium group
Procedure: as §1

[4] = test peptide 80 μg/kg vs c-CGRP at equivalent dose
[5] = test peptide 80 μg/kg vs h-CGRP 80 μg/kg
[6] = test peptide 20 μg/kg vs c-CGRP 20 μg/kg
[7] = test peptide 20 μg/kg vs h-CGRP 80 μg/kg

| Structure (SMILES) | duration of serum phosphate reducing activity ([1]; 80 μg/kg i.v.) | reduction of serum phosphate concentration as compared with control group ([1]; 80 μg/kg i.v., FIGS. 2 and 4) | serum phosphate reducing activity compared with c-CGRP [1, 4] | serum phosphate reducing activity compared with h-CGRP [1, 5] | pI [2] | duration of serum calcium reducing activity ([3]; 80 μg/kg i.v.) | reduction of serum calcium concentration as compared with control group ([3]; 80 μg/kg i.v., FIGS. 1 and 3) | serum calcium reducing activity compared with c-CGRP [3, 4] | serum calcium reducing activity compared with h-CGRP [3, 5] | duration of serum phosphate reducing activity ([1]; 20 μg/kg i.v.) [h] | reduction of serum phosphate concentration as compared with control group ([1]; 20 μg/kg i.v., FIG. 2) | serum phosphate reducing activity compared with c-CGRP [1, 6] | serum phosphate reducing activity compared with h-CGRP [1, 7] | duration of serum calcium reducing activity ([3]; 20 μg/kg i.v.) [h] | reduction of serum calcium concentration as compared with control group ([3]; 20 μg/kg i.v., FIG. 1) | serum calcium reducing activity compared with c-CGRP [3, 6] | serum calcium reducing activity compared with h-CGRP [3, 7] |
| --- | --- | --- | --- | --- | --- | --- | --- | --- | --- | --- | --- | --- | --- | --- | --- | --- | --- |
| CC(C)C[C@H](NC(=O)[C@H](CCCNC(=N)N)NC(=O)[C@H](Cc1c[nH]cn1)NC(=O)[C@@H](NC(=O)[C@@H](NC(=O)[C@@H]1CCCCCC(=O)N[C@@H](CC(=O)O)C(=O)N[C@@H]([C@@H](C)O)C(=O)N[C@@H](C)C(=O)N[C@@H]([C@@H](C)O)C(=O)N1)C(C)C)[C@@H](C)O)C(=O)N[C@@H](C)C(=O)N[C@@H](CC(=O)O)C(=O)N[C@@H](Cc1ccccc1)C(=O)N[C@@H](CC(C)C)C(=O)N[C@@H](CO)C(=O)N[C@@H](CCCNC(=N)N)C(=O)N[C@@H](CO)C(=O)NCC(=O)NCC(=O)N[C@H](C(=O)NCC(=O)N[C@@H](CCCCN)C(=O)N[C@@H](CC(N)=O)C(=O)N[C@@H](CC(N)=O)C(=O)N[C@@H](Cc1ccccc1)C(=O)N[C@H](C(=O)N1CCC[C@H]1C(=O)N[C@H](C(=O)N[C@@H](CC(N)=O)C(=O)N[C@H](C(=O)NCC(=O)N[C@@H](CO)C(=O)N[C@@H](CCCCN)C(=O)N[C@@H](C)C(=O)N[C@@H](Cc1ccccc1)C(N)=O)C(C)C)[C@@H](C)O)C(C)C)C(C)C [desalanyl-[Asp^3,Asu^2,7]-c-CGRP] (DTAT[Asu]VTHRLADFLSRSGGVGKNNFVPTNVGSKAF-NH2; lactam N-5) | more than 2 hours | more than 30% | significantly strong as compared with c-CGRP | stronger than that of h-CGRP | more than 10.25 | more than 2 hours | more than 30% | significantly strong as compared with c-CGRP | stronger than that of h-CGRP |  |  |  |  |  |  |  |  |
| CC(C)C[C@H](NC(=O)[C@H](CCCNC(=N)N)NC(=O)[C@H](Cc1c[nH]cn1)NC(=O)[C@@H](NC(=O)[C@@H](NC(=O)[C@@H]1CCCCCC(=O)N[C@@H](CC(N)=O)C(=O)N[C@@H]([C@@H](C)O)C(=O)N[C@@H](C)C(=O)N[C@@H]([C@@H](C)O)C(=O)N1)C(C)C)[C@@H](C)O)C(=O)N[C@@H](C)C(=O)N[C@@H](CC(=O)O)C(=O)N[C@@H](Cc1ccccc1)C(=O)N[C@@H](CC(C)C)C(=O)N[C@@H](CO)C(=O)N[C@@H](CCCNC(=N)N)C(=O)N[C@@H](CO)C(=O)NCC(=O)NCC(=O)N[C@H](C(=O)NCC(=O)N[C@@H](CCCCN)C(=O)N[C@@H](CC(N)=O)C(=O)N[C@@H](CC(N)=O)C(=O)N[C@@H](Cc1ccccc1)C(=O)N[C@H](C(=O)N1CCC[C@H]1C(=O)N[C@H](C(=O)N[C@@H](CC(N)=O)C(=O)N[C@H](C(=O)NCC(=O)N[C@@H](CO)C(=O)N[C@@H](CCCCN)C(=O)N[C@@H](C)C(=O)N[C@@H](Cc1ccccc1)C(N)=O)C(C)C)[C@@H](C)O)C(C)C)C(C)C [desalanyl-[Asu^2,7]-c-CGRP] (NTAT[Asu]VTHRLADFLSRSGGVGKNNFVPTNVGSKAF-NH2; lactam N-5) | more than 2 hours | more than 30% | significantly strong as compared with c-CGRP | stronger than that of h-CGRP | more than 10.25 | more than 2 hours | more than 30% | significantly strong as compared with c-CGRP | stronger than that of h-CGRP |  |  |  |  |  |  |  |  |
| CC(C)C[C@H](NC(=O)[C@H](CCCNC(=N)N)NC(=O)[C@H](Cc1c[nH]cn1)NC(=O)[C@@H](NC(=O)[C@@H](NC(=O)[C@@H]1CSSCCC(=O)N[C@@H](CC(N)=O)C(=O)N[C@@H]([C@@H](C)O)C(=O)N[C@@H](C)C(=O)N[C@@H]([C@@H](C)O)C(=O)N1)C(C)C)[C@@H](C)O)C(=O)N[C@@H](C)C(=O)N[C@@H](CC(=O)O)C(=O)N[C@@H](Cc1ccccc1)C(=O)N[C@@H](CC(C)C)C(=O)N[C@@H](CO)C(=O)N[C@@H](CCCNC(=N)N)C(=O)N[C@@H](CO)C(=O)NCC(=O)NCC(=O)N[C@H](C(=O)NCC(=O)N[C@@H](CCCCN)C(=O)N[C@@H](CC(N)=O)C(=O)N[C@@H](CC(N)=O)C(=O)N[C@@H](Cc1ccccc1)C(=O)N[C@H](C(=O)N1CCC[C@H]1C(=O)N[C@H](C(=O)N[C@@H](CC(N)=O)C(=O)N[C@H](C(=O)NCC(=O)N[C@@H](CO)C(=O)N[C@@H](CCCCN)C(=O)N[C@@H](C)C(=O)N[C@@H](Cc1ccccc1)C(N)=O)C(C)C)[C@@H](C)O)C(C)C)C(C)C [desalanyl-deamino-c-CGRP] ([Mpa]NTATCVTHRLADFLSRSGGVGKNNFVPTNVGSKAF-NH2; disulfide 1-6) | ≥ 2 h | more than 30% | stronger | stronger than those of h-CGRP | more than 10.25 | ≥ 2 h | more than 30% | stronger | stronger than those of h-CGRP | ≥ 2 | more than 30% | significantly strong as compared with c-CGRP | stronger than those of h-CGRP administered in quadruple the amounts | ≥ 2 | more than 30% | significantly strong as compared with c-CGRP | stronger than those of h-CGRP administered in quadruple the amounts |

Source: patent US5049654A, “Calcitonin gene related peptide derivatives” (Toyo Jozo Kabushiki Kaisha, priority 1986, dated 1991)
